In one data set the test system is POMC gene expression. The data set can be described thus: Particle-induced POMC gene expression in human epidermal keratinocytes (qRT-PCR). The data set is classed as cell-based. To be noted: for POMC 6 h gene expression: control = 1, particles alone 1.5 ± 0.031. As for the experimental part: (§1) Gene expression was analyzed via qRT-PCR.
(§2) Ginger root CO2 extract has been dissolved in DMSO and diluted in medium. […] Gene expression was analyzed via qRT-PCR. […] Table 9 compiles the results for ginger root CO2 extract altered POMC and IL-6 gene expression
(§3) Purple coneflower pressed juice has been dissolved directly in medium. […] Gene expression was analyzed via qRT-PCR. […] Table 10 compiles the results for purple coneflower pressed juice altered POMC and IL-6 gene expression
(§4) A mixture of sclareloide and ginger root CO2 extract has been dissolved directly in medium. […] Gene expression was analyzed via qRT-PCR. […] Table 11 compiles the results for […] altered POMC and IL-6 gene expression
In general terms: In qPCR the cycle at which signal appears reflects the starting amount.

Another data set has as its system IL-6 gene expression. The data set can be described thus: Particle-induced IL-6 gene expression in human epidermal keratinocytes (qRT-PCR). The data set is classed as cell-based. To be noted: for IL-6 6 h gene expression: SRM1650b. As for the experimental part:
as §1, §2, §3, §4

A further data set deals with MMP1 gene expression. The data set can be described thus: Particle-induced MMP1 gene expression in human epidermal keratinocytes (qRT-PCR). It counts as cell-based. The following applies: for MMP-1 24 h gene expression / MMP1 24 h gene expression: SRM1650b; for MMP-1 24 h gene expression: untreated = 1, particles alone 1.57 ± 0.05; for MMP1 24 h gene expression: control = 1, particles alone 1.3 ± 0.03. As for the experimental part:
as §1

The next data set concerns POMC protein level. The data set can be described thus: Particle-induced POMC protein release from HaCaT cells (ELISA of supernatant). It counts as cell-based. As for the experimental part: II) HaCaT cells are seeded into a 96-well plate with 0.3×10^4 cells/well. After incubation over night the test compound (10 μM Sclareolide) is added to the cells and the plate is incubated for two more hours. Then diesel exhaust particles (SRM 1650b) are added to a final concentration of 1.5 μg/cm2 and the plate incubated for 24 hours. The supernatant is transferred into an ELISA plate (Cusabio, CSB-E09307 h) and the POMC protein level quantified using ELISA technique performed according to the manufacturer's instructions.
(In an ELISA, binding on a coated surface is turned into a signal by an enzyme label.)

The next data set addresses T1, AhR (Homo sapiens, UniProt P35869).
T1 construct: endogenous in cells; host or cells: XRE-HepG2 (HepG2 carrying an XRE-driven luciferase reporter)
T1 sequence (P35869 11-848): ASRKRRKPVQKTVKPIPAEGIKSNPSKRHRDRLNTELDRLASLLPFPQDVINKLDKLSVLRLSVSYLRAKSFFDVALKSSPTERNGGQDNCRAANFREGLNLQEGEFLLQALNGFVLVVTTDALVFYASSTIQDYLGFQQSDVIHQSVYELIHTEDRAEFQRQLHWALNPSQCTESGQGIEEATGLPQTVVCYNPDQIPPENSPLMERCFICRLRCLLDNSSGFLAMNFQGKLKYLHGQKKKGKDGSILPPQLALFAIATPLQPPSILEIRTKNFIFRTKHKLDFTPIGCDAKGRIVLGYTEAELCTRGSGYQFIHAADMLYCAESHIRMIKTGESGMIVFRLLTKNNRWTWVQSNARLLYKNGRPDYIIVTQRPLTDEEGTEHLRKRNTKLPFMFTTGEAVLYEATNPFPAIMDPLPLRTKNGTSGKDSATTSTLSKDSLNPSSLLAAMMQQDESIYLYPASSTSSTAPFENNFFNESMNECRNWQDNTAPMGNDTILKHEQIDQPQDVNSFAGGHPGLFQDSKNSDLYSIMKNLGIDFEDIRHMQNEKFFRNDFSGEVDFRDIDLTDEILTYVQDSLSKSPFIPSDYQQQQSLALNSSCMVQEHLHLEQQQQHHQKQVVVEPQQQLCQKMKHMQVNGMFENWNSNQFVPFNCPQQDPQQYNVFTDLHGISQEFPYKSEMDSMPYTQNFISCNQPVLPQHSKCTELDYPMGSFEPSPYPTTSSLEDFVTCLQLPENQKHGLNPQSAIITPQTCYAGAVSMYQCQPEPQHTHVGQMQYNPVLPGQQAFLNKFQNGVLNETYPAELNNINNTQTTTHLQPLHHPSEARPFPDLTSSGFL
The data set can be described thus: AhR antagonism, luciferase reporter gene assay in XRE-HepG2 cells. It counts as cell-based. The following applies: 16 h or 24 h. As for the experimental part:
For reporter gene analyses, 1×10^5 XRE-HepG2 cells/well were seeded in 12-well plates and cultured overnight. Cells were treated for 16 h or 24 h with the indicated substances.
Cell lysates were prepared, and luciferase activities were determined using the luciferase assay system. Protein concentrations were determined by using the BC Assay protein quantification kit. Luciferase activities were normalized against the protein concentration of each probe. Each sample was analyzed in triplicate.
(In a reporter assay the amount or activity of a reporter protein is the signal.)

In another data set the test system is CYP1A1 gene expression. The data set can be described thus: Particle-induced CYP1A1 gene expression in human epidermal keratinocytes (qRT-PCR). To be noted: for CYP1A1 Induction mean ± SE: NHEK adult; for CYP1A1 Induction mean ± SE / CYP1A1 gene expression, Induction mean ± SE: 10 μM; for CYP1A1 gene expression, Induction mean ± SE: indoor particles Huber990 1.5 μg/cm2.

Method for CYP1A1 gene expression: Adult human epidermal keratinocytes were cultured in keratinocyte medium without BPE and without EGF for 24 h prior to addition of model particles (see table 1.1). The model particles were suspended in phosphate buffered saline and were sonicated for 1 min and then directly added to the keratinocytes at 1.5 μg/cm^2. […] Solutions containing the compound with maximal 0.1% DMSO were applied 2 h prior to treatment with the model particles. Gene expression was analyzed via qRT-PCR.

Turning to `CC1(C)CCC[C@]2(C)C3CC(=O)O[C@]3(C)CC[C@@H]12` (stereo partly drawn) [Sclareolide, (3aR,5aS,9aS,9bR)-decahydro-3a,6,6,9a-tetramethyl-naphtha[2,1-b]furan-2(1H)-one], the “particle induced POMC gene expression (result in words)” value in the data set on POMC gene expression was “capable to inhibit”. The “POMC 24 h gene expression” value in the data set with POMC gene expression (10 μM, SRM1650b, untreated = 1, particles alone 1.50 ± 0.06) amounted to 1.03 ± 0.07; in the data set on POMC gene expression (10 μM, SRM2975, untreated = 1, particles alone 1.30 ± 0.00), 0.73 ± 0.06. The “particle induced IL-6 gene expression (result in words)” value with IL-6 gene expression is listed as “capable to inhibit”. The “IL-6 6 h gene expression” value in the data set on IL-6 gene expression (0.00001%, untreated = 1, particles alone 1.90 ± 0.04) was 1.53 ± 0.04; with IL-6 gene expression (0.00005%, untreated = 1, particles alone 1.90 ± 0.04), 1.42 ± 0.02. In the data set on MMP1 gene expression, the “particle induced MMP1 gene expression (result in words)” value is listed as “capable to inhibit”. For the same compound, the “MMP-1 24 h gene expression” value in the data set with MMP1 gene expression (0.00001%) is recorded as 1.41 ± 0.04; in the data set on MMP1 gene expression (0.00005%), 1.29 ± 0.02. Also, in the data set with POMC protein level (10 μM Sclareolide added 2 h before SRM 1650b 1.5 μg/cm2, 24 hours, control = 1.00, particles alone 1.43 ± 0.082), the “POMC normalized to control” value is listed as 1.22 ± 0.009. Besides, the “particle induced POMC release (result in words)” value with POMC protein level (SRM 1650b) is on record as “capable to inhibit”. The “Relative luciferase activity (fold of DMSO control)” value at AhR (10 μM + 1 μM BaP, DMSO = 1.00, BaP alone 20.78 ± 1.04) is reported as 12.28 ± 4.90 fold of DMSO control; at AhR (20 μM + 1 μM BaP, DMSO = 1.00, BaP alone 20.78 ± 1.04), 9.60 ± 1.32 fold of DMSO control; on AhR (20 μM alone, no BaP, DMSO = 1.00), 1.06 ± 0.45 fold of DMSO control.
Regarding “E/Z-2-benzylindene-5,6-dimethoxy-3,3-dimethylindan-1-one [BDDI]”, the “particle induced POMC gene expression (result in words)” value in the data set on POMC gene expression is on record as “capable to inhibit”. Besides, the “POMC 6 h gene expression” value in the data set on POMC gene expression (1 μM, SRM1650b) is recorded as 0.9 ± 0.018; in the data set on POMC gene expression (2.5 μM, SRM1650b), 1.1 ± 0.02; in the data set on POMC gene expression (10 μM, SRM1650b) it was 0.9 ± 0.001. The “particle induced IL-6 gene expression (result in words)” value in the data set on IL-6 gene expression was “capable to inhibit”. In addition, the “IL-6 6 h gene expression” value with IL-6 gene expression (1 μM, control = 1, particles alone 1.4 ± 0.041) came out at 0.9 ± 0.067; in the data set on IL-6 gene expression (2.5 μM, control = 1, particles alone 1.4 ± 0.041), 0.6 ± 0.006; with IL-6 gene expression (10 μM, control = 1, particles alone 1.4 ± 0.041) it was 0.5 ± 0.01. In addition, the “particle induced MMP1 gene expression (result in words)” value in the data set with MMP1 gene expression is recorded as “capable to inhibit”. Moreover, the “MMP1 24 h gene expression” value with MMP1 gene expression (1 μM) is listed as 0.7 ± 0.014; with MMP1 gene expression (2.5 μM), 0.8 ± 0.016; in the data set on MMP1 gene expression (10 μM), 0.5 ± 0.022. Further, the “CYP1A1 Induction mean ± SE” value with CYP1A1 gene expression (SRM1650 1.5 μg/cm2, 6 h, untreated = 1, particles alone 2.90 ± 0.12) is 0.02 ± 0.00; with CYP1A1 gene expression (SRM1650 1.5 μg/cm2, 6 h, untreated = 1, particles alone 5.33 ± 0.07), 1.83 ± 0.03; in the data set with CYP1A1 gene expression (SRM1650 1.5 μg/cm2, 24 h, untreated = 1, particles alone 16.53 ± 0.98), 4.17 ± 0.09; in the data set with CYP1A1 gene expression (SRM1650 1.5 μg/cm2, 24 h, untreated = 1, particles alone 23.23 ± 0.64), 8.77 ± 0.09; in the data set on CYP1A1 gene expression (SRM2975 1.5 μg/cm2, 6 h, untreated = 1, particles alone 1.03 ± 0.03 (n.s.)), 0.20 ± 0.00; in the data set with CYP1A1 gene expression (SRM2975 1.5 μg/cm2, 6 h, untreated = 1, particles alone 2.07 ± 0.07) it was 0.05 ± 0.0003. The “CYP1A1 Induction mean ± SE” value is 0.01 ± 0.00 with CYP1A1 gene expression (SRM2975 1.5 μg/cm2, 24 h, untreated = 1, particles alone 4.90 ± 0.17) and 0.60 ± 0.06 in the data set with CYP1A1 gene expression (SRM2975 1.5 μg/cm2, 24 h, untreated = 1, particles alone 5.10 ± 0.06). The “particle induced Cyp1A1 gene expression (result in words)” value in the data set with CYP1A1 gene expression (indoor as well as outdoor model particles) is given as “capable to inhibit”. In addition, the “CYP1A1 gene expression, Induction mean ± SE” value was determined as 0.05 ± 0.00 with CYP1A1 gene expression (6 h, untreated = 1, particles alone 2.70 ± 0.00) and 0.20 ± 0.00 in the data set with CYP1A1 gene expression (24 h, untreated = 1, particles alone 2.90 ± 0.00).

Values taken from patent US10357447B2, “Cosmetic compositions comprising sclareolide” (Symrise AG, priority 2015, dated 2019).
